Data published in patent US20110263539A1, “SHIP 1 MODULATOR COMPOUNDS” (THE UNIVERSITY OF BRITISH COLUMBIA, priority 2006, published 2011).

Assays:
plasma TNFα = test: Mouse endotoxemia model (Assay 6); type: in vivo, C57B16 mice; settings: oral administration 30 min prior to LPS, 2 hrs
Method: (§1) Assay 6) Mouse endotoxemia model. 6-8 week old C57B16 mice (VCHRI Mammalian Model of Human Disease Core Facility, Vancouver, BC) were orally administered the test compound 30 min prior to an IP injection of 2 mg/kg of LPS (E. Coli serotype 0111:B4, Sigma, Oakville, Ont). Blood was drawn 2 hrs later for determination of plasma TNFα by ELISA.
as §1, with “Mouse” for “Assay 6) Mouse”, “indicated dose of AQX-016A, Compound 100 or dexamethasone or carrier” for “test compound”, “ELISA. Results are representative of 3 independent experiments. (FIGS. 7D and 9)” for “ELISA.”
AQX-016A's ability to provide protection by inhibiting inflammatory reactions in vivo was assessed in mouse models. The mouse model of endotoxic shock involves intraperitoneal (IP) injection of bacterial LPS and measurement of serum TNFα levels 2 hrs later. We orally administered AQX-016A or the steroidal drug dexamethasone to mice 30 min prior to the LPS challenge.

SHIP enzyme = test: In vitro SHIP enzyme assay (Assay 1); type: biochemical; for Assay Number 1: SHIP enzyme assay: key: a ‘+’ indicates a positive result for desired activity; a ‘−’ indicates a negative result for desired activity
Method: Assay 1) In vitro testing in a SHIP enzyme assay. Test compounds were dissolved in a suitable solvent (e.g. EtOH, DMSO and others) and diluted into aqueous buffer (20 mM Tris HCl, pH 7.5 and 10 mM MgCl2). SHIP enzyme assays were performed in 96-well microtitre plates with 10 ng of enzyme/well in a total volume of 25 μL of 20 mM Tris HCl, pH 7.5 and 10 mM MgCl2. SHIP enzyme was incubated with test extracts (provided in solvent) or vehicle for 15 min at 23° C. before the addition of 100 μM inositol-1,3,4,5-tetrakisphosphate (Echelon Biosciences Inc, Salt Lake City, Utah). After 20 min at 37° C. and the amount of inorganic phosphate released assessed by the addition of Malachite Green reagent and absorbance measurement at 650 nm.
For in vitro testing in the SHIP enzyme assay, AQX-016A and Compound 100 were dissolved in EtOH and diluted into aqueous buffer (20 mM Tris HCl, pH 7.5 and 10 mM MgCl2). The actual concentration of drug in solution was determined by optical density measurement at 280 nm (λmax for both compounds) after high speed centrifugation at 14 000×g for 30 min to remove precipitated drug. For testing on cells, compounds were formulated in the carrier cyclodextrin (Cyclodex Technologies, High Springs, Fla.) at 6 mM (2 mg/mL). For oral administration to animals, compounds were dissolved in 100% cremophore EL (Sigma-Aldrich Canada, Oakville, Ontario) at 150 mM (50 mg/mL) prior to dilution to 6 mM in phosphate buffer saline. However, while these compounds caged in cyclodextrin or formulated in cremophore EL micelles were very soluble in aqueous solution, they could not be used in the SHIP enzyme assays because of interference from both cyclodextrin and cremophore EL.
N-terminal His6 tagged SHIP enzyme was expressed in mammalian 293T cells by transient transfection with pME18S-His-SHIP plasmid and purified to >95% homogeneity by Ni-chelating bead chromatography (Qiagen, Mississauga, Ontario). Recombinant SHIP C2 domain (amino acid residues 725 to 863) was expressed in E. coli transformed with a pET28C expression vector constructed as described below. Recombinant protein purified from the cell lysates by Nichelating bead chromatography was >95% pure.
In vitro SHIP enzyme assay. SHIP enzyme assays were performed in 96-well microtitre plates with 10 ng of enzyme/well in a total volume of 25 μL of 20 mM Tris HCl, pH 7.5 and 10 Mm MgCl2. SHIP enzyme was incubated with test extracts (provided in DMSO) or vehicle for 15 min at 23° C. before the addition of 100 μM inositol-1,3,4,5-tetrakisphosphate (Echelon Biosciences Inc, Salt Lake City, Utah). After 20 min at 37° C. and the amount of inorganic phosphate released assessed by the addition of Malachite Green reagent and absorbance measurement at 650 nm. SHIP2 enzyme was purchased from Echelon Biosciences (Salt Lake City, Utah) and an equivalent amount of inositol phosphatase activity was used in the in vitro enzyme assay. Enzyme data are expressed as the mean of triplicates +/−SEM. Experiments were performed at least 3 times. (FIGS. 7A and 7B).

ΔC2 SHIP = test: SHIP enzyme assay with C2 domain deleted SHIP; type: biochemical; settings: PI-3,4-P2 20 μM or Compound 100 3 μM, 30 μM IP4
Text: A His6 tagged SHIP ΔC2 domain deletion mutant (deleting residues 725 to 863) in the mammalian expression vector pME18S was generated by a standard PCR-based methodology. An N-terminal His6 C2 domain construct was also generated by PCR inserted into the pET28C bacterial expression vector using EcoRI and NdeI restriction sites.
The allosteric regulation of enzymes has remained under-appreciated primarily because allosteric effectors are not easy to find. The molecular mechanism by which Compound 100 activated SHIP was investigated, first by performing classical enzyme kinetic analysis of its phosphatase activity. Activity measurements were performed with substrate concentrations from 10-100 μM.
The SHIP protein contains a C2 domain located at the carboxyterminal end of its phosphatase domain. […] SHIP lacking its the C2 domain (ΔC2 SHIP) was prepared.

SHIP C2 domain = test: Scintillation proximity assay, C2 domain; type: binding; settings: [3H]-Compound 100, SPA beads
Method: Compound 100 was radiolabelled with tritium by GE Healthcare (Piscataway, N.J.) to a specific activity of 42 Ci/mmole. Copper chelate (His-Tag) YSi SPA Scintillation Beads (GE Healthcare, Piscataway, N.J.) were diluted in 0.25% BSA/TBS to 1.5 mg/mL and recombinant, His6-tagged protein added at the indicated concentrations: wild-type (1 μM), ΔC2 SHIP enzyme (1 pM) or C2 domain (10 nM). Protein was allowed to bind 1 h at 23° C., and 250 μg of beads were aliquoted per well of a 96-well plate. 5 μCi of [^3H]-Compound 100 was added per well, the plate gently agitated for 30 min and the amount of bead associated radioactivity quantified by counting in a Wallac BetaPlate plate scintillation counter.
Isolated recombinant, His6-tagged C2 domain was expressed and its PI-3,4-P2 binding ability was determined using protein lipid overlay assays. Purified C2 domain was incubated with membrane strips spotted with PI-3,4-P2 and bound protein detected using an anti-His6 antibody. As shown in FIG. 11C the C2 domain bound PI-3,4-P2 and this binding was inhibited by Compound 100, consistent with both Compound 100 and PI-3,4-P2 interacting with the C2 domain at a common binding site.

Cc1cc(O)cc2c1[C@]1(C)CCC3C(C)(C)CCC[C@]3(C)[C@H]1C2 (some centres unmarked) [Compound 100]
LPS-induced plasma/serum TNFα levels (plasma TNFα): efficiently inhibited | Assay Number 1: SHIP enzyme assay (SHIP enzyme; 100 μM inositol-1,3,4,5-tetrakisphosphate, Malachite Green): + | SHIP enzyme activity (SHIP enzyme; wild-type SHIP): enhanced SHIP enzyme activity in vitro | ΔC2 SHIP enzyme activity (ΔC2 SHIP): could not be enhanced | binding to C2 domain (SHIP C2 domain): directly bind the C2 domain
